Assays:
[1] = test system: conscious, previously instrumented, adult sheep; assay: Electrocardiological effects of i.v. infusion in conscious sheep; assay type: in vivo; details: for deaths: 150, 150 and 200 mg infused over 3 min, ventricular tachycardia and fibrillation; for convulsive dose (inducing ventricular arrhythmias): sheep, 3 min
Procedure: The electrocardiological effects of bupivacaine and levobupivacaine were compared, in two groups of conscious, previously instrumented, adult sheep. Two cohorts of 7 animals were infused over 1 min with 6.25, 12.5, 18.75, 25 and 37.5 mg levobupivacaine and 12.5, 25 and 37.5 mg bupivacaine or over 3 min with 37.5, 50, 75, 100, 150 and 200 mg levobupivacaine and 37.5, 75, 100, 150 and 200 mg bupivacaine. […] Both drugs, at convulsive doses (75 mg bupivacaine, 100 mg levobupivacaine), induced ventricular arrhythmias; however, there was a higher threshold of toxicity with levobupivacaine. […] Inasmuch as levobupivacaine is reported to produce at least equivalent neural blockade to bupivacaine, it therefore offers a great margin of clinical safety.
FIGS. 1 and 2 of the accompanying drawings show baseline record of ECG (left), S-T segment change (centre) and multiform ventricular tachycardia (right) after i.v. infusion (40 ml, 3 min) of 100 mg bupivacaine and then of 200 mg levobupivacaine, in the same sheep.

[2] = test system: patients undergoing major abdominal surgery; assay: Epidural anaesthesia in patients undergoing major abdominal surgery; assay type: in vivo, human; details: 0.75%
Procedure: This study compared the efficacy, safety and pharmacokinetics of 0.75% levobupivacaine with 0.75% bupivacaine in 58 patients undergoing major abdominal surgery under epidural anaesthesia. Although 0.75% bupivacaine is no longer used in some situations (obstetrics) and 0.5% concentrations are usually adequate for lower extremity surgery, 0.75% is preferential for abdominal surgery because of the enhancement of motor blockade. Onset of sensory anaesthesia to T10 (mean˜15 minutes), time to peak block height (T5, 25-30 min), and abdominal muscle relaxation (RAM score 3-5) were equivalent between the groups. Duration of total sensory anaesthesia was statistically longer with 0.75% levobupivacaine (levobupivacaine—551 min, racemic bupivacaine—506 min).

[3] = test system: adult patients, axillary brachial plexus; details: by comparison; cited from earlier work
[4] = test system: guinea-pig papillary muscle; assay: Developed force and action potential parameters in papillary muscle; details: for effect on developed force and action potential parameters at steady-state: equimolar concentrations
Procedure: Contraction was measured in mycocytes and papillary muscle isolated from guinea-pig ventricle and pectinate muscle isolated from human right atrial appendage. Myocytes were isolated from guinea-pig left ventricle by an enzyme digestion procedure and placed in a chamber on the stage of an inverted microscope. Cells were superfused with Krebs-Henseleit buffer (KHB) at 30° C. and field stimulated at 1.0 Hz. Cell shortening was measured with a video camera and edge-etection system. Papillary and pectinate muscles were placed in KHB at 37° C. and field stimulated at 1.0 Hz. Isometric tension was recorded at maximum developed force (Lmax). Electrophysical parameters were recorded in papillary muscles superfused with KSB at 37° C. and stimulated at 1.0 Hz. Standard action potential parameters were recorded, i.e. maximum rate of rise of membrane potential (Vmax); action potential amplitude (APA); and action potential duration to 90% repolarisation (APD90). Developed force was measured by recording isometric tension in muscles stretched to 90% of Lmax.

[5] = test system: Pentobarbital-Anesthetized Swine; assay: Intracoronary (LAD) injection cardiotoxicity model, lethal dose and QRS prolongation; assay type: in vivo; details: for lethal dose, median / lethal dose, range: LAD injection, death by VF; for lethal dose higher than that of B: injected into LAD or RCA
Procedure: Reiz et al, Acta Anaesthesiol. Scand. (1989) 33:93-98, reports that in vivo cardiotoxicity of local anaesthetics can be evaluated without interference by central mechanisms in a highly reproducible model (Pentobarbital-Anesthetized Swine) where the drug is injected directly into a coronary artery. When local anesthetics are injected in the left anterior descending artery (LAD), death occurs consistently by ventricular fibrillation (VF). The aim of this study was to determine the lethal dose of each of the local anesthetics levobupivacaine (L), bupivacaine (B) and ropivacaine (R) as well as to compare their respective effects on the QRS interval of the precordial ECG.
A total of 27 animals were randomized to receive a dose response injection of L, B or R into the LAD. A blinded randomized protocol was used. All calculations and exclusions were made prior to disclosure of treatment. The doses of each agent were 0.375, 0.75, 1.5, 3.0, 4.0 mg etc., in increments of 1 mg till death occurred. Each dose was made up in a volume of 3 ml plus the dead space of the catheter (1.2 ml), injected over 10 sec. The time between doses was 5 min, or longer, if ECG, blood pressure or heart rate had not returned to pre-injection controls. A complete 12-lead ECG was recorded on optical disk for later analysis. Statistical analysis was by ANOVA, Dunnett's and the Mann-Whitney-U test. Power analysis was performed (0.85 to 1.00).
One animal died of myocardial infarction following acute embolization into the LAD. […] Of the animals injected into the LAD, 7 had received L, 7 B and 6 R. All deaths following LAD injection were by VF and deaths following RCA injection were by A-V dissociation. […] The difference between L and R at 50 msec prolongation was insignificant.

[6] = test system: myocytes isolated from guinea-pig left ventricle; assay: Cell shortening (contraction) in isolated ventricular myocytes; assay type: cell-based; details: cardiac myocytes, P<0.05
Procedure: Contraction was measured in mycocytes and papillary muscle isolated from guinea-pig ventricle and pectinate muscle isolated from human right atrial appendage.
Myocytes were isolated from guinea-pig left ventricle by an enzyme digestion procedure and placed in a chamber on the stage of an inverted microscope. Cells were superfused with Krebs-Henseleit buffer (KHB) at 30° C. and field stimulated at 1.0 Hz. Cell shortening was measured with a video camera and edge-etection system. Papillary and pectinate muscles were placed in KHB at 37° C. and field stimulated at 1.0 Hz. Isometric tension was recorded at maximum developed force (Lmax).
The mean drug concentration producing a 50% reduction (CI-50) in cell shortening was calculated from cumulative dose-response curves. All data were analysed by an unpaired t-test (for control data comparison) or one-way ANOVA (for comparison between drug groups), assuming a Gaussian distribution.

[7] = Plasma kinetics after administration (summary statement); assay type: in vivo
[8] = test system: adult patients, axillary brachial plexus; assay: Axillary brachial plexus neural blockade in patients with distal upper extremity orthopaedic surgery; assay type: in vivo, human
Procedure: 20 adult patients scheduled for distal upper extremity orthopaedic surgical procedures with axillary brachial plexus neural blockade were studied. Patients received an axillaryblock using 50 ml of 0.5% levobupivacaine without epinephrine. Transarterial and/or nerve stimulator techniques were used to identify injection into the brachial plexus sheath. If after 10 min patients required supplemental local anaesthetic to produce anaesthesia in a single peripheral nerve distribution, an additional 10 ml of 0.5% levobupivacaine could be administered as a single peripheral nerve-block at the axilla or wrist. Patients were monitored for onset and duration of sensory and motor block using a 0-2 scale (0=no block, 1=partial block, 2=complete block) for each major nerve distribution (median, musculocutaneous, radius, ulnar). Time to onset of adequate anaesthesia for surgery, time to first request for post-operative analgesics, as well as any subjective or objective signs of local anaesthetic toxicity were also collected. Blood samples for PK analysis were drawn from 10 patients.

sensory block = details: 0.25%; cited from earlier work

CCCCN1CCCCC1C(=O)Nc1c(C)cccc1C (racemic) [bupivacaine]
deaths [1]: Three animals died within 10 min
potency in inducing an arrhythmia, relative to levobupivacaine ([1]; in vivo, iv): slightly more potent
potency in sustaining the arrhythmia, relative to levobupivacaine ([1]; in vivo, iv): more than three times more potent
convulsive dose (inducing ventricular arrhythmias) ([1]; in vivo, iv): 75 mg
duration of total sensory anaesthesia [2]: 506 min
onset of sensory anaesthesia to T10, mean [2]: ~15 min
recommended dose [3]: 2 mg/kg
effect on developed force and action potential parameters at steady-state [4]: No significant differences
lethal dose, median [5]: 5 mg
lethal dose, range [5]: 4 to 6 mg

CCCCN1CCCC[C@H]1C(=O)Nc1c(C)cccc1C [levobupivacaine, (S)-1-butyl-N-(2,6-dimethylphenyl)-2-piperidinecarboxamide]
deaths [1]: No animals died
ventricular arrhythmias induced, compared with the same doses of bupivacaine ([1]; in vivo): Significantly fewer, as well as less deleterious
convulsive dose (inducing ventricular arrhythmias) ([1]; in vivo, iv): 100 mg
recovery of contractility on washout with drug-free perfusate, vs bupivacaine [6]: significantly greater
duration of total sensory anaesthesia [2]: 551 min
onset of sensory anaesthesia to T10, mean [2]: ~15 min
time to reach Tmax compared with the same dose of racemate ([7]; in vivo): takes longer to reach Tmax
plasma clearance rate compared with bupivacaine ([7]; within 0-4 hours post-administration): faster plasma clearance rate
duration of sensory/motor block in at least two nerve distributions, range ([8]; 0.5%, 50-60 ml): 14 to 24 h
mean duration of sensory/motor block in at least two nerve distributions ([8]; 0.5%, 50-60 ml): 20 h
sensory and motor blockade in all four peripheral nerve distributions immediately post-operatively ([8]; 0.5%, 50-60 ml): All patients had complete sensory and motor blockade
time to request for supplemental analgesics ([8]; 0.5%, 50-60 ml): 15 h
time to request for supplemental analgesics, range ([8]; 0.5%, 50-60 ml): 9 to 24 h
patients requiring general anaesthesia due to inadequate sensory/motor block at 30 min post-injection ([8]; 0.5%, 50-60 ml, 20 patients): 2 patients
patients with adequate onset of sensory/motor blockade for surgical anaesthesia within 30 min ([8]; 0.5%, 50-60 ml, 20 patients): 18 patients
signs or symptoms of local anaesthetic toxicity ([8]; 3-5 mg/kg): No patient demonstated any subjective or objective signs or symptoms of local anaesthetic toxicity
well tolerated doses for axillary block ([8]; axillary block, patients): 3 to 5 mg/kg
effect on developed force and action potential parameters at steady-state [4]: No significant differences
recovery of contractility on washout with drug-free perfusate, vs bupivacaine ([4]; guinea-pig papillary muscle, P<0.05): significantly greater
sensory block efficacy and duration compared with bupivacaine (sensory block): comparable efficacy to bupivacaine
lethal dose, median [5]: 8 mg
lethal dose, range [5]: 7 to 9 mg
difference in dose vs B to obtain the same degree of QRS prolongation ([5]; at 40 msec QRS prolongation): 25%
difference between L and R in dose for QRS prolongation ([5]; at 50 msec prolongation): insignificant
difference in dose vs B to obtain the same degree of QRS prolongation ([5]; at 90 msec QRS prolongation): 47%
lethal dose higher than that of B [5]: approximately 50%

CCCN1CCCC[C@H]1C(=O)Nc1c(C)cccc1C [ropivacaine, reference compound]
effect on developed force and action potential parameters at steady-state [4]: No significant differences
lethal dose, median [5]: 8 mg
lethal dose, range [5]: 4 to 10 mg
QRS prolongation ([5]; at the 6 mg dose, 100% approximately 60 msec): ≤ 100%
lethal dose higher than that of B [5]: approximately 50%

Source: patent US6514994B2, “Levobupivacaine and its use” (Darwin Discovery, Ltd., priority 1997, dated 2003)
